{"source": "a melting point compilation (Tetko et al.; mined from patent text by program, amines drawn as free bases though some values may be those of a salt)"}
{"units": {"melting point": "°C"}}
{"compound": "O=C(N[C@@H]1CCc2c(Br)ccc(N3CCNCC3)c2C1)c1ccc(N2CCOCC2)cc1", "melting point": "228 to 229"}
{"compound": "CCCC(N)CC(=O)O", "note": "(stereo not drawn)", "melting point": 203}
{"compound": "O=[N+]([O-])c1cc(C(c2ccc(NCc3ccccc3)c([N+](=O)[O-])c2)(C(F)(F)F)C(F)(F)F)ccc1NCc1ccccc1", "melting point": "168 to 172"}
{"compound": "Cc1nc(N)c2ncn(CCOc3ccccc3)c2c1C", "melting point": "197 to 199"}
{"compound": "CCNC1CN(c2c(F)cc3c(=O)c(C(=O)O)cn(-c4nc(N)c(F)cc4F)c3c2Br)C1", "melting point": "195 to 196"}
{"compound": "CC(C)CC(Oc1c(Br)cc(-c2ccc(-c3c(Cc4ccccc4)oc4ccccc34)cc2)cc1Br)C(=O)O", "note": "(stereo not drawn)", "melting point": "81 to 83"}
{"compound": "Nc1nc(NCC=Cc2ccccc2)nc(-c2cc(Cl)ccc2Cl)n1", "melting point": "198 to 199"}
{"compound": "COc1cccc2c1C(C)C(=O)N2", "note": "(stereo not drawn)", "melting point": "128 to 130"}
{"compound": "O=C(O)c1ncsc1-c1cccc(I)c1", "melting point": 186}
{"compound": "CC(C)(C)c1cc(C(=O)Nc2ccccc2NC(=O)NCC(c2ccccc2)c2ccccc2)cc(C(C)(C)C)c1O", "melting point": "198 to 200"}
{"compound": "CCOC(=O)c1cc(Cl)c(OCCCc2cc(C)no2)c(Cl)c1", "melting point": "49 to 50"}
{"compound": "OC(CCC1CCN(Cc2ccccc2)CC1)c1ccc(N2CCCC2)cc1", "note": "(stereo not drawn)", "melting point": "93 to 95"}
{"compound": "CC1=C(C)C(Cl)N(c2ccc(Cl)c(Cl)c2)C1=O", "note": "(stereo not drawn)", "melting point": "95 to 96"}
{"compound": "Cc1cccc(C)c1N(C(C)C(=O)NN)S(C)(=O)=O", "note": "(stereo not drawn)", "melting point": "115 to 118"}
{"compound": "CC(=O)N1CCN(c2ccc(-c3cnc4[nH]cc(C(=O)C5(C)CCCCC5)c4n3)cc2)CC1", "melting point": "278 to 285"}
{"compound": "CC(C)NC(=O)c1nsc2ccc(-n3c(=O)cc(C(F)(F)F)n(C)c3=O)cc12", "melting point": "110 to 113"}
{"compound": "Cc1cccc(-c2nc3c(C)cccc3[nH]2)c1[N+](=O)[O-]", "melting point": "186 to 188"}
{"compound": "CCOC(=O)c1cc(NCc2ccccc2)c(Oc2ccc(OCc3ccccc3)cc2)c(S(N)(=O)=O)c1", "melting point": 166}
{"compound": "CC(C)=NOCCCn1cnc2c(N)nc3cccnc3c21", "melting point": "120 to 121"}
{"compound": "CCC1(c2cccc(OC)c2)CCCC(=O)N(C)C1", "note": "(stereo not drawn)", "melting point": "69 to 71"}
{"compound": "N#Cc1cnc2c(c1)N(Cc1cc(Cl)ccc1Cl)CCN2", "melting point": "221 to 222"}
{"compound": "COc1ccc2c(c1)C=Cn1c(nnc1S(C)=O)C2", "note": "(stereo not drawn)", "melting point": "241 to 242"}
{"compound": "CN(O)C(=O)NCCCOc1ccc(-c2ccccc2)cc1", "melting point": "161 to 162"}
{"compound": "COc1cc(C(=O)NCc2ccc3c(c2)C(=C2CCN(C)CC2)c2ccccc2C=C3)cc(OC)c1OC", "melting point": "200 to 202"}
{"compound": "CC(C)(C)OC(=O)N1CCC(OCc2ccccc2)C1CC(O)Cn1cnc2ccncc2c1=O", "note": "(stereo not drawn)", "melting point": 221}
{"compound": "CCOc1cc(-c2c(C(=O)OC)c(C(=O)OC)c(O)c3cc(OC)c(OC)c(OC)c23)ccc1OC", "melting point": 158}
{"compound": "COc1cccc(CNC(=O)c2nc3ccc(OCC(=O)c4ccccc4)cc3c(=O)[nH]2)c1", "melting point": "168 to 169"}
{"compound": "NC(=O)N1C(=O)C(=C(OC(=O)C=CC(=O)OCCCCc2ccccc2)c2cccs2)c2cc(F)c(Cl)cc21", "melting point": "159 to 161"}
{"compound": "CCCC=Cn1c2ccccc2c2ccccc21", "melting point": 47}
{"compound": "COC(=O)c1ccc(S(=O)(=O)N2CC[C@H](O)C2)n1C", "melting point": "108 to 109"}
{"compound": "C[Si](C)(C)N1C(=O)c2ccccc2S1(=O)=O", "melting point": "90 to 92"}
{"compound": "Cc1ccc(F)cc1C(=O)Nc1ccc(C(=O)N2CCCCc3sccc32)cn1", "melting point": "178 to 180"}
{"compound": "CCOc1ccc2c(c1)C(C)(c1ccccc1O)C(=O)N2S(=O)(=O)c1ccc(C(=O)NC(C)(C)C)cc1", "note": "(stereo not drawn)", "melting point": 180}
{"compound": "O=c1c2ccc(Cl)cc2[nH]c2c(=O)n(-c3ccc(O)cc3)nc(O)c12", "melting point": "393 to 395"}
{"compound": "NS(=O)(=O)c1cc2c(c(C(=O)N3CCN(c4ncccn4)CC3)c1)OCCO2", "melting point": 239}
{"compound": "CCOC(=O)C(=O)Nc1cccc(S(C)=O)c1C(N)=O", "note": "(stereo not drawn)", "melting point": "164 to 166"}
{"compound": "Clc1cc(Nc2ccccc2)c(Cl)nn1", "melting point": "137 to 139"}
{"compound": "O=S(=O)(NCCCl)c1ccccc1", "melting point": "58 to 62"}
